Where two headings read alike, the source gives them in different places.
Key:
LasB = target: T1, LasB (Pseudomonas aeruginosa, UniProt Q02RJ6); test: biochemical; format: biochemical; details: for inhibition at 100 µM: read-out: % inh LasB @100 µM; for fold drop in activity compared to the 4-Me derivative (4a): vs 4a
T1 construct: made in house

ColH-PD = ColH-PD (Hathewaya histolytica, UniProt Q46085); test: biochemical; format: biochemical, Clostridium histolyticum; details: for inhibition at 1 µM: read-out: % inhibition ColH-PD @1 µM
Sequence of ColH-PD (Q46085 331-721 limits assumed): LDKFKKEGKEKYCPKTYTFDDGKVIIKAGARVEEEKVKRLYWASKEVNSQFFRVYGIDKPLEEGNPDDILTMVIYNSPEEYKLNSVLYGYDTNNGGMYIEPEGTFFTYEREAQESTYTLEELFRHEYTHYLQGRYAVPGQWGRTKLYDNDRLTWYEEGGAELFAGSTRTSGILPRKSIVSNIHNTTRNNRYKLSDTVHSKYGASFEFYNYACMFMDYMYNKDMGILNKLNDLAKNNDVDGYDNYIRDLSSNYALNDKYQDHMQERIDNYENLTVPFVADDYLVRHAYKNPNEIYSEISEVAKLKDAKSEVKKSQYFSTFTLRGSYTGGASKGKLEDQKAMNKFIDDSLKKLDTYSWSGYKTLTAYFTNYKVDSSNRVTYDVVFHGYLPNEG

HEK293 = details: human, 48 h, 100 µM
Method: Culturing of HepG2, A549 and HEK293 cells. The human hepatocellular carcinoma cell line HepG2, the lung adenocarcinoma cell line A549 and Human Embryonic (HEK) 293 cells were cultured in Dulbecco's Modified Eagle Medium (DMEM), containing 10% Fetal Bovine Serum
(FBS) and 1% penicillin-streptomycin mixture. Cells were maintained according to standard cell
Cytotoxicity assay. An MTT-based assay was employed to evaluate the viability of HepG2,
HEK293 and A549 cells after challenge with selected LasB inhibitors and performed as described

[1] = Metabolic stability in mouse liver S9 fraction; format: in vitro ADME
TACE = target: T2, TACE (Homo sapiens, UniProt P78536); test: TACE inhibitor screening kit; format: biochemical; details: read-out: % inhibition TACE
T2 construct: purchased Sigma-Aldrich (Saint Louis, MO)
T2 sequence (P78536 215-824): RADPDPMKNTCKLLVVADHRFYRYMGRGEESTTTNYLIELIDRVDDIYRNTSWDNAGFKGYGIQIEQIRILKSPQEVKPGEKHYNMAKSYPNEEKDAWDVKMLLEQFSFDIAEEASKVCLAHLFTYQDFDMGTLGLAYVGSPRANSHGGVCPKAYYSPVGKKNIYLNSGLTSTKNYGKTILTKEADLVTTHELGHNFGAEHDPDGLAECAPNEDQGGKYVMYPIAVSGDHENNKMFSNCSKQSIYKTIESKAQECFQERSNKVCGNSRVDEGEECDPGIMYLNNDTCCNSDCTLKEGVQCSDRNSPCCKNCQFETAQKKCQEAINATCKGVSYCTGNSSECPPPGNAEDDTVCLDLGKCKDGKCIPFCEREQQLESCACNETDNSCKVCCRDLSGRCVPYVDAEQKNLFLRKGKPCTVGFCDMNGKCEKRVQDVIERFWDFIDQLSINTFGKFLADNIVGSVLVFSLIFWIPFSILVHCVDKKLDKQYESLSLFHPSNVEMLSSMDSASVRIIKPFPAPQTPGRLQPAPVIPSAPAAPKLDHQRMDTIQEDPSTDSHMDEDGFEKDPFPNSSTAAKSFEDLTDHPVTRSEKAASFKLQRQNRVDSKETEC

COX-1 = target: T3, COX-1 (Ovis aries, UniProt P05979); test: Fluorometric COX-1 inhibitor assay; format: biochemical, human
T3 construct: purchased Abcam (Cambridge, UK)
T3 sequence (P05979 25-600): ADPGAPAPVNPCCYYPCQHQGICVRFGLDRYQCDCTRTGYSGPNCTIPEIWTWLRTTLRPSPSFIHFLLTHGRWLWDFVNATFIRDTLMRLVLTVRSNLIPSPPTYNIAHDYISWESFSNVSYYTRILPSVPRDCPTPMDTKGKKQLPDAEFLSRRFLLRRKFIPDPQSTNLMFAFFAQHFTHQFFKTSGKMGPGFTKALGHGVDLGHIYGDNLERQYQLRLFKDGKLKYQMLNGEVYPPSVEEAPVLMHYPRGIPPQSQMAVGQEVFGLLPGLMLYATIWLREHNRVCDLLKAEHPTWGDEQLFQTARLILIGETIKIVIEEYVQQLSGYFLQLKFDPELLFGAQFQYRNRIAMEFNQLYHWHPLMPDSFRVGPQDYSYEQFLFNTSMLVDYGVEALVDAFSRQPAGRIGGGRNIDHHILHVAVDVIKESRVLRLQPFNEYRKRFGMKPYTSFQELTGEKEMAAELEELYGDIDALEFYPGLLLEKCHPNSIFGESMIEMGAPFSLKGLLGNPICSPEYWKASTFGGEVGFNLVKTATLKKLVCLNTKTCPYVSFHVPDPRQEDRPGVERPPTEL

Plasma stability, mouse = format: in vitro ADME; details: mouse plasma; read-out: Plasma T1/2 Mouse
MMP-2 = target: T4, MMP-2 (Homo sapiens, UniProt P08253); test: MMP-2 inhibition assay; format: biochemical; details: read-out: % inhibition MMP-2
T4 construct: purchased AnaSpec (Fremont, CA, USA)
T4 sequence (P08253 110-660): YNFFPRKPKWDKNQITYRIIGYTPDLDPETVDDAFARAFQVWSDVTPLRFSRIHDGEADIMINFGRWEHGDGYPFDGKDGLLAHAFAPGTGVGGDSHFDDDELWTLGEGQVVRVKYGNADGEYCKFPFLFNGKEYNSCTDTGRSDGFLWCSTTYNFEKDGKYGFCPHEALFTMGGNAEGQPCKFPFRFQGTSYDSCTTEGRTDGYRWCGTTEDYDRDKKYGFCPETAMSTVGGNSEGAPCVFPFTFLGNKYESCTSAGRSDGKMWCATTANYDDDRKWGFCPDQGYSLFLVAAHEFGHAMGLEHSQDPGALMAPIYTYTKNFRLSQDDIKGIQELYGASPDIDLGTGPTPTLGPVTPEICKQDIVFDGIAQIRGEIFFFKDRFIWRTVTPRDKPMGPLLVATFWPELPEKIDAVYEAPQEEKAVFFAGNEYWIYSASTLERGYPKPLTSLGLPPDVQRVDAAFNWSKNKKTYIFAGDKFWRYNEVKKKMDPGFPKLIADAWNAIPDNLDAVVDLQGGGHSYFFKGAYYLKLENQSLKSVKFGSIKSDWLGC

MMP-1 = target: T5, MMP-1 (Homo sapiens, UniProt P03956); test: MMP-1 inhibition assay; format: biochemical; details: read-out: % inhibition MMP-1
T5 construct: purchased AnaSpec (Fremont, CA, USA)
T5 sequence (P03956 100-469): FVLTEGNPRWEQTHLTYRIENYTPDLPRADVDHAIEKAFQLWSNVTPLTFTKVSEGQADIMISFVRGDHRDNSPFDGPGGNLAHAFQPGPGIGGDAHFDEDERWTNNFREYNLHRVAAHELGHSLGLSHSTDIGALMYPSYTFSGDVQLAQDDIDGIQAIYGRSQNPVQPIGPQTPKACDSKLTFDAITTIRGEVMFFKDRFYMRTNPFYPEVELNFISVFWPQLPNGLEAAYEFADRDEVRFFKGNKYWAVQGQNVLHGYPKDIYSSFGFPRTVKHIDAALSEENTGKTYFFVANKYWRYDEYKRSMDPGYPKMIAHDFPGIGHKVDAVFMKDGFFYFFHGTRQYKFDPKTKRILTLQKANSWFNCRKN

MMP-3 = target: T6, MMP-3 (Homo sapiens, UniProt P08254); test: MMP-3 inhibition assay; format: biochemical; details: read-out: % inhibition MMP-3
T6 construct: purchased AnaSpec (Fremont, CA, USA)
T6 sequence (P08254 100-477): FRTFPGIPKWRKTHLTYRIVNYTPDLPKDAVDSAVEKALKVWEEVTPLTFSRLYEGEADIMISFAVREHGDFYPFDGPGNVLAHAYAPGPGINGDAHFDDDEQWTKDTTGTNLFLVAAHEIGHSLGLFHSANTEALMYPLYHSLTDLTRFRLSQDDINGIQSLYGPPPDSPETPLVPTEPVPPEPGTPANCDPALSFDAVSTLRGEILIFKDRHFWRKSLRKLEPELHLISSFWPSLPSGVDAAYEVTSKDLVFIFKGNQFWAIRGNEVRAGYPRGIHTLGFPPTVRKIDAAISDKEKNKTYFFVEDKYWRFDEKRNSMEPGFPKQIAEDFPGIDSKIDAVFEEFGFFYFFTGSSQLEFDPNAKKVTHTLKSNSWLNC

[2] = Metabolic stability in human liver S9 fraction; format: in vitro ADME
P. aeruginosa PA14 = test: Bacterial growth inhibition assay; format: cell-based, Pseudomonas aeruginosa; details: Pseudomonas aeruginosa, PA14; 100 µM compound concentration; read-out: Percent (%) growth inhibition of P. aeruginosa PA14
Method: Bacterial growth inhibition assay. Assays regarding the determination of the MIC were
performed as described recently for P. aeruginosa PA14.58

[3] = Lipophilicity determination (LogD7.4, HPLC-MS); format: physicochemical; details: pH 7.4, pH 7.4, chromatographic
Method: Lipophilicity determination. LogD7.4 was analyzed using an HPLC−MS based method.50 The retention time of 12 compounds with known LogD7.4 was determined and plotted toward their LogD7.4. Linear regression was used to determine the LogD7.4 of unknown compounds. Analysis was performed using a Dionex Ultimate 3000 HPLC system coupled to a TSQ Quantum Access MAX (Thermo Fisher, Dreieich, Germany) with the following conditions: EC150/2 NUCLEODUR C18 Pyramid column, 5 μM (Macherey Nagel, Düren, Germany); eluent A: 50 mM NH4OAc pH 7.4, eluent B: acetonitrile, and flow: 0.6 mL/min.

[4] = system: Galleria mellonella larvae infected with wt PA14; test: G. mellonella infection model
Calu-3 permeability = format: in vitro ADME; details: human
HDAC-8 = target: T7, HDAC-8 (Homo sapiens, UniProt Q9BY41); test: HDAC-8 inhibitor screening kit; format: biochemical
T7 construct: purchased Sigma-Aldrich (Saint Louis, MO)
T7 sequence (Q9BY41 1-377): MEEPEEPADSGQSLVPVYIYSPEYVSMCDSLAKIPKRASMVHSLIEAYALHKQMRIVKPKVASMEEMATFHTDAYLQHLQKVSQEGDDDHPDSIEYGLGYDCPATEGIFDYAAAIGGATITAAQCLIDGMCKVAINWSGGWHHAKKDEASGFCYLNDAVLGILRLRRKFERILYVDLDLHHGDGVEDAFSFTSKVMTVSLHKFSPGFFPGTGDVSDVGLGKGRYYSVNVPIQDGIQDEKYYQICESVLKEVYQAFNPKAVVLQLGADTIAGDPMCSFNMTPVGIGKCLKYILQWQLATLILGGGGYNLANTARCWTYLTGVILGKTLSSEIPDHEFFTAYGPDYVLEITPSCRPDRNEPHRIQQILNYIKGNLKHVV

HDAC-3 = target: T8, HDAC-3 (Homo sapiens, UniProt O15379); test: HDAC-3 inhibitor screening kit; format: biochemical
T8 construct: purchased Sigma-Aldrich (Saint Louis, MO)
T8 sequence (O15379 whole entry): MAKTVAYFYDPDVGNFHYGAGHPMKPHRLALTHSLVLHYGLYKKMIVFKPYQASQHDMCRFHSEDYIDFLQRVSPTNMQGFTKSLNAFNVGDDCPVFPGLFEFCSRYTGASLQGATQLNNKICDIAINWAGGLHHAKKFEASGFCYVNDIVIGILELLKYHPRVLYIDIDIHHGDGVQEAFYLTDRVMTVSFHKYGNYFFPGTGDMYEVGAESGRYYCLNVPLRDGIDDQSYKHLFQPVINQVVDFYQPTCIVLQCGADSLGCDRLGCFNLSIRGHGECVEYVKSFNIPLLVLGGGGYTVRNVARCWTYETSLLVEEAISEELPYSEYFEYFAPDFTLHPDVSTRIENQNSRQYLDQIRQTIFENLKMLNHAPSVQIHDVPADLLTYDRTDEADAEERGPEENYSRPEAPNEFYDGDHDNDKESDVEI
T8 sequence (Q9Y618 395-489 partner limits assumed): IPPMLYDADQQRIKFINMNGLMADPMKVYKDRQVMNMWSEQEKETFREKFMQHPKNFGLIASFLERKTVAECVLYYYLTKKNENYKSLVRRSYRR

[5] = FRET-based assay, read-out: LasB IC50

T1 sequence (Q02RJ6 198-498): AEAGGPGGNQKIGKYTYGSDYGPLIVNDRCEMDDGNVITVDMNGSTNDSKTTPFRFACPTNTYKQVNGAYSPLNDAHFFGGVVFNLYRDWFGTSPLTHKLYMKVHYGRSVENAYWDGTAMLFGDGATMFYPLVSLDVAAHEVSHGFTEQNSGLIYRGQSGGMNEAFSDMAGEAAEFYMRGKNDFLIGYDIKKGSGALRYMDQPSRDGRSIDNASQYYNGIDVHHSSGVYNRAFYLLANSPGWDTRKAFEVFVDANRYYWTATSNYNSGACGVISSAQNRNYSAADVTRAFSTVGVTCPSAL

SMILES: CC(C)CC(C(=O)Nc1cccc2ccccc12)P(=O)(O)O (stereo not drawn) [Compound 4m]
- IC50 (LasB; [5]): 69.1 ± 7.5 nM

SMILES: CCCC(C(=O)Nc1ccc(C(C)=O)cc1)P(=O)(O)O (stereo not drawn) [Compound 4ad]
- IC50 (LasB; LasB IC50, FRET-based assay): 870 ± 30 nM

SMILES: Cc1ccc(NC(=O)C(CC(C)C)C(=O)O)cc1 (stereo not drawn) [Compound 3e]
- inhibition at 100 µM (LasB): 46 ± 3%

SMILES: CC(=O)c1ccc(NC(=O)CP(=O)(O)O)cc1 [Compound 2]
- inhibition at 600 µM (LasB; read-out: % LasB inhibition @600 µM): 33 ± 4%

SMILES: CCCC(C(=O)Nc1ccc(OC)cc1)P(=O)(O)O (stereo not drawn) [Compound 4ab]
- IC50 (LasB; LasB IC50, FRET-based assay): 1110 nM

SMILES: CC(=O)c1ccc(NC(=O)C(CC(C)C)P(=O)(O)O)cc1 (stereo not drawn) [Compound 4g]
- IC50 (LasB; [5]): 40.4 ± 11.6 nM
- % inhibition ColH-PD @1 µM (ColH-PD): 65%
- Ki (ColH-PD): 320 ± 70 nM
- fold higher potency against ColH compared to 2 (ColH-PD): 20 fold

SMILES: Cc1ccc(NC(=O)C(CC(C)C)P(=O)(O)O)c(F)c1 (stereo not drawn) [Compound 4d]
- IC50 (LasB; [5]): 116 ± 16.1 nM
- fold drop in activity compared to the 4-Me derivative (4a) (LasB): ~2 fold
- inhibition at 1 µM (ColH-PD): < 10%

SMILES: CC(C)CC(C(=O)Nc1ccc(Cl)cn1)P(=O)(O)O (stereo not drawn) [Compound 4p]
- IC50 (LasB; [5]): 500 ± 40 nM
- fold more potent than 4q (LasB; vs 4q): 2 fold

SMILES: Cc1ccc(NC(=O)C(CC(C)C)P(=O)(O)O)c(C)c1 (stereo not drawn) [Compound 4e]
- IC50 (LasB; [5]): 84.5 ± 2.7 nM
- fold drop in activity compared to the 4-Me derivative (4a) (LasB): ~2 fold

SMILES: Cc1ccc(NC(=O)C(CC(C)C)n2ccnc2)cc1 (stereo not drawn) [Compound 3k]
- inhibition at 100 µM (LasB): 14 ± 4%

SMILES: Cc1ccc(NC(=O)C(Cc2ccccc2)P(=O)(O)O)cc1 (stereo not drawn) [Compound 4x]
- IC50 (LasB; [5]): 137 ± 33 nM

SMILES: CC(C)CC(C(=O)Nc1ccc(Br)cc1)P(=O)(O)O (stereo not drawn) [Compound 4j]
- IC50 (LasB; [5]): 48.6 ± 2.3 nM

SMILES: O=C(Nc1ccc(C(F)(F)F)cc1)C(Cc1ccccc1)P(=O)(O)O (stereo not drawn) [Compound 4y]
- IC50 (LasB; [5]): 101.5 ± 0.9 nM

SMILES: CCOC(=O)C(CC(C)C)C(=O)Nc1ccc(C)cc1 (stereo not drawn) [Compound 3d]
- inhibition at 100 µM (LasB): < 10%

SMILES: Cc1ccc(NC(=O)C(CC2CCCCC2)P(=O)(O)O)cc1 (stereo not drawn) [Compound 4z]
- IC50 (LasB; [5]): 2030 nM

SMILES: CC(C)CC(C(=O)Nc1ccc(C(N)=O)nc1)P(=O)(O)O (stereo not drawn) [Compound 4r]
- IC50 (LasB; LasB IC50, FRET-based assay): 220 ± 20 nM

SMILES: Cc1ccc(NC(=O)C(CC(C)C)c2nn[nH]n2)cc1 (stereo not drawn) [Compound 3j]
- inhibition at 100 µM (LasB): < 10%

SMILES: CC(C)CC(C(=O)Nc1ccc(Cl)cc1)P(=O)(O)O (stereo not drawn) [Compound 4i]
- IC50 (LasB; [5]): 47.6 ± 4.4 nM

SMILES: CC(C)CC(C(=O)Nc1ccc(C#N)cc1)P(=O)(O)O (stereo not drawn) [Compound 4k]
- IC50 (LasB; LasB IC50, FRET-based assay): ~25 nM
- IC50 (LasB; LasB IC50 in presence of 1% pulmonary surfactant, 1% pulmonary surfactant): 85 nM
- % growth inhibition HEK293 (HEK293): 15 ± 23%
- microsomal CLint at 1 μM [1]: < 5.8 µL/min/mg
- inhibition at 100 µM (TACE): < 10%
- inhibition at 100 µM (COX-1): < 10%
- half-life at 1 μM (Plasma stability, mouse): > 2.5 h
- inhibition at 100 µM (MMP-2): < 10%
- inhibition at 100 µM (MMP-1): 10 ± 5%
- inhibition at 100 µM (MMP-3): 11 ± 5%
- microsomal CLint at 1 μM [2]: < 5.8 µL/min/mg
- inhibition at 100 µM (P. aeruginosa PA14): < 10%
- chromatographic logD [3]: -0.87

SMILES: Cc1ccc(NC(=O)[C@@H](N)CC(C)C)cc1 [Compound 3b]
- inhibition at 100 µM (LasB): < 10%

SMILES: NC[C@H]1O[C@H](O[C@H]2[C@H](O)[C@@H](O[C@H]3O[C@H](CO)[C@@H](O)[C@H](N)[C@H]3O)[C@H](N)C[C@@H]2N)[C@H](N)C[C@@H]1O [tobramycin, reference compound]
- survival of larvae infected with wt PA14 ([4]; 1 nmol 4b, 10.7 nmol tobramycin, or both, 17% in the wild type): 23%
- survival in the PBS treated groups (not infected) ([4]; PBS with 4b, tobramycin or combination of both): 100%

SMILES: CC(C)CC(C(=O)Nc1ccc(Cl)c(Cl)c1)P(=O)(O)O (stereo not drawn) [Compound 4c]
- IC50 (LasB; LasB IC50, FRET-based assay): 25.7 ± 4.1 nM
- fold more active than 4-acetyl (4g) (LasB; vs 4g): 1.6 fold
- inhibition at 1 µM (ColH-PD): < 10%

SMILES: COc1ccc(NC(=O)C(CC(C)C)P(=O)(O)O)cc1 (stereo not drawn) [Compound 4f]
- IC50 (LasB; [5]): 51.8 ± 10.4 nM
- inhibition at 1 µM (ColH-PD): < 10%

SMILES: Cc1ccc(NC(=O)C(CC(C)C)OS(N)(=O)=O)cc1 (stereo not drawn) [Compound 3c]
- IC50 (LasB; LasB IC50, FRET-based assay): 53000 ± 4000 nM

SMILES: CC(C)CC(C(=O)Nc1ccc2c(c1)CCC2)P(=O)(O)O (stereo not drawn) [Compound 4o]
- IC50 (LasB; [5]): 44.3 ± 4.5 nM

SMILES: Cc1ccc(NC(=O)[C@H](CC(C)C)NC(=O)OC(C)(C)C)cc1 [Compound 3a]
- inhibition at 100 µM (LasB): < 10%

SMILES: Cc1ccc(NC(=O)C(CC(C)C)n2ccnn2)cc1 (stereo not drawn) [Compound 3l]
- microsomal CLint at 1 μM [1]: 90 ± 9 µL/min/mg
- Papp at 300 min (Calu-3 permeability): 17 ± 1 ×10⁻⁶ cm/s
- inhibition at 100 µM (TACE; 100 μM): < 10%
- inhibition at 100 µM (COX-1): < 10%
- half-life at 1 μM (Plasma stability, mouse): > 2.5 h
- inhibition at 100 µM (HDAC-8): < 10%
- inhibition at 100 µM (MMP-2; 100 μM): < 10%
- inhibition at 100 µM (MMP-1; 100 μM): < 10%
- inhibition at 100 µM (MMP-3; 100 μM): < 10%
- microsomal CLint at 1 μM [2]: 8.8 ± 1.2 µL/min/mg
- inhibition at 100 µM (HDAC-3): < 10%
- chromatographic logD [3]: > 1.8

SMILES: Cc1ccc(NC(=O)C(CC(C)C)n2cncn2)cc1 (stereo not drawn) [Compound 3n]
- inhibition at 100 µM (LasB): < 10%

SMILES: CC(C)CC(C(=O)Nc1ccc2ccccc2c1)P(=O)(O)O (stereo not drawn) [Compound 4n]
- IC50 (LasB; [5]): 63.6 ± 9.9 nM
